Measured values from ChEMBL document CHEMBL1137285, “1-Alkyl-2-aryl-4-(1-naphthoyl)pyrroles: new high affinity ligands for the cannabinoid CB1 and CB2 receptors” (Bioorg Med Chem Lett, 2006).
pKi: −log10 of the molar value.

Tests used:
Cannabinoid receptor 2 = Cannabinoid receptor 2 (Homo sapiens, UniProt P34972); experiment: Displacement of [3H]CP-55940 from human cloned CB2 receptor
Cannabinoid receptor 1 = Cannabinoid receptor 1 (Rattus norvegicus, UniProt P20272); experiment: Displacement of [3H]CP-55940 from CB1 receptor in rat brain; type: tissue-based
Sequence of Cannabinoid receptor 1 (P20272 whole entry): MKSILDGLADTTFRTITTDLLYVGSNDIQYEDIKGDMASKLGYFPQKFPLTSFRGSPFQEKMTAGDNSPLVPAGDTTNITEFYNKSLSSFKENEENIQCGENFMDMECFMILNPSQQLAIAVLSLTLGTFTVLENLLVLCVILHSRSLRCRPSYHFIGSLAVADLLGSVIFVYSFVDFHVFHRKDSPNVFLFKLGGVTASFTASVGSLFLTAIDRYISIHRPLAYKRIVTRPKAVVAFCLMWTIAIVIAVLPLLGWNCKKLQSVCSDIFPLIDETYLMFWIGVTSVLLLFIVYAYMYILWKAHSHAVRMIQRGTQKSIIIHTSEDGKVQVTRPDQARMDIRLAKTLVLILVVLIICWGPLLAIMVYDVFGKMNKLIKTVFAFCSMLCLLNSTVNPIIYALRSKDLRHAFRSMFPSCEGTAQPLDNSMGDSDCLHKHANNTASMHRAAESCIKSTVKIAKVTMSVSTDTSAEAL

Sequence of Cannabinoid receptor 2 (P34972 whole entry): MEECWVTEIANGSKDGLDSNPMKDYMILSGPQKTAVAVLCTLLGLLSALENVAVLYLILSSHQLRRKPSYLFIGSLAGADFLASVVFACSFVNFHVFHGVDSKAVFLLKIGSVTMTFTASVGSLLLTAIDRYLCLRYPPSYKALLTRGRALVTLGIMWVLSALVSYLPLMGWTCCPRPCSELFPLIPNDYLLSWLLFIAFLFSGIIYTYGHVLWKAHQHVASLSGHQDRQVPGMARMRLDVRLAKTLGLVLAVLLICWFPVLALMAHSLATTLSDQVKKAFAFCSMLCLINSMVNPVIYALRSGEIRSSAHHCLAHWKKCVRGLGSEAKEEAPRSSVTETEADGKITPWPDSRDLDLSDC

Structure (SMILES) | pKi (Cannabinoid receptor 2) | pKi (Cannabinoid receptor 1)
CCCCn1cc(C(=O)c2cccc3ccccc23)cc1-c1ccccc1 | 7.82 | 7.22
CCCCCn1cc(C(=O)c2cccc3ccccc23)cc1-c1ccccc1Cl | 8.28 | 8.10
CCCCCn1cc(C(=O)c2cccc3ccccc23)cc1-c1ccccc1F | 8.48 | 8.11
CCCn1cc(C(=O)c2cccc3ccccc23)cc1-c1ccccc1 | 6.98 | 6.39
CCCCCn1cc(C(=O)c2cccc3ccccc23)cc1-c1ccccc1OC | 7.70 | 7.54
CCCCCn1cc(C(=O)c2cccc3ccccc23)cc1-c1cccc([N+](=O)[O-])c1 | 7.39 | 7.00
CCCCCn1cc(C(=O)c2cccc3ccccc23)cc1-c1cccnc1 | 7.62 | 6.72
CCCCCn1cc(C(=O)c2cccc3ccccc23)cc1-c1ccc(Cl)cc1 | 7.60 | 6.56
CCCCCn1cc(C(=O)c2cccc3ccccc23)cc1-c1cccc(C)c1 | 7.41 | 7.17
CCCCCn1cc(C(=O)c2cccc3ccccc23)cc1-c1cccc(C(F)(F)F)c1 | 7.15 | 6.61
CCCCCn1cc(C(=O)c2cccc3ccccc23)cc1-c1ccc(CCCC)cc1 | 7.19 | 7.38
CCCCCCCn1cc(C(=O)c2cccc3ccccc23)cc1-c1ccccc1 | 7.21 | 7.68
CCCCCn1cc(C(=O)c2cccc3ccccc23)cc1-c1ccccc1C | 8.40 | 8.25
CCCCCn1cc(C(=O)c2cccc3ccccc23)cc1-c1cccc(F)c1 | 8.04 | 7.80
CCCCCn1cc(C(=O)c2cccc3ccccc23)cc1-c1ccccc1CC | 8.47 | 7.77
CCCCCn1cc(C(=O)c2cccc3ccccc23)cc1-c1ccc(OC)cc1 | 7.39 | 6.55
CCCCCn1cc(C(=O)c2cccc3ccccc23)cc1-c1ccc2ccccc2c1 | 6.77 | 6.48
CCCCCn1cc(C(=O)c2cccc3ccccc23)cc1-c1ccc(F)cc1 | 7.48 | 7.39
CCCCCn1cc(C(=O)c2cccc3ccccc23)cc1-c1cccc(Cl)c1 | 7.80 | 7.15
CCCCCCn1cc(C(=O)c2cccc3ccccc23)cc1-c1ccccc1 | 8.15 | 7.96
CCCCCn1cc(C(=O)c2cccc3ccccc23)cc1-c1ccc(C(F)(F)F)cc1 | 7.28 | 6.66
CCCCCn1cc(C(=O)c2cccc3ccccc23)cc1-c1ccccc1CCCC | 7.16 | 7.22
CCCCCn1cc(C(=O)c2cccc3ccccc23)cc1-c1cccc2ccccc12 | 7.31 | 7.39
CCCCCn1cc(C(=O)c2cccc3ccccc23)cc1-c1ccccc1C(F)(F)F | 8.09 | 7.11
CCCCCn1cc(C(=O)c2cccc3ccccc23)cc1-c1ccc(C)cc1 | 7.74 | 6.89
CCCCCn1cc(C(=O)c2cccc3ccccc23)cc1-c1ccccc1 | 8.19 | 7.85
CCCCCn1cc(C(=O)c2cccc3ccccc23)cc1-c1cccc(OC)c1 | 7.64 | 7.28
CCCCCn1cc(C(=O)c2cccc3ccccc23)cc1-c1ccc(CC)cc1 | 7.54 | 7.47
